Experiment: gradient 5% acetonitrile 3 min, to 50% in 2 min, to 85% in 15 min, held 3 min, 100 µL/min
Settings: column: Zorbax Extend-C18 2.1 x 50 mm; eluents: water / acetonitrile, 0.1% formic acid
Procedure, shortened: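 Data were gathered over 3 months by HPLC coupled to a quadrupole time-of-flight mass spectrometer, operated in positive and negative ionization mode. Mixtures of ~100 pure standards ran on a Zorbax Extend-C18 column (2.1 × 50 mm, 1.8 μm) at 100 μL/min, with water and acetonitrile each containing 0.1% formic acid and dead and dwell volumes of 40 μL and 900 μL. Retention time was read from adduct peaks picked by computer and checked manually.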

RP-LC retention time [s]	Structure (SMILES)
814	O=C(NCC1CC1)C1CCN(c2nc3ccsc3c(=O)n2Cc2ccccc2)CC1
877	CSc1cccc(NC(=O)Cn2ccn3nc(-c4ccc(F)cc4)c(CO)c3c2=O)c1
875	O=S(=O)(Cc1ccccc1)N1CCC(c2nc(C3CC3)no2)C1 (centres undefined)
990	O=C(Nc1ccc(OCc2nnc(-c3ccc(Cl)cc3)o2)cc1)c1ccccn1
606	Cc1[nH]c(C)c(S(=O)(=O)N2CCN(c3ccccn3)CC2)c1C(=O)N1CCCCC1
901	CCC(=O)N1CCc2c([nH]c3ccc(Cl)cc23)C12C(=O)N(C)c1ccccc12 (centres undefined)
781	O=C1[C@H]2CN(Cc3ccccc3F)C[C@H]2C(=O)N1CCc1ccccc1
544	O=C(NCCc1ccncc1)C1CN(C(=O)COc2ccccc2F)C1
657	COCCN1C(=O)CCC2(CNC(=O)c3cnccn3)CCCC=C12 (centres undefined)
737	COc1ccc(OC)c(CNC(=O)C2CCCN(c3nnc4ccc(Cl)cn34)C2)c1 (centres undefined)
1030	CC1CCN(S(=O)(=O)c2ccc(-c3nnc(C(=O)NCCCOC(C)C)o3)cc2)CC1
748	Cc1noc(C)c1CC(=O)N1CCC(Cc2noc(C3CC3)n2)C1 (centres undefined)
921	CC1=NS(=O)(=O)N(C)C=C1C(=O)OCCOc1ccccc1
718	Cc1ccc(-c2cc(C(=O)N3CCN(Cc4ccc5c(c4)OCO5)CC3)c(C)[nH]2)cc1C
938	Cc1ccc(NC(=O)N2CCC(N3CCN(Cc4ccccc4)C3=O)CC2)cc1Cl
1120	O=C1COc2ccccc2N1Cc1nc(-c2ccc(F)c(Br)c2)no1
662	COc1ccc(CCS(=O)(=O)NCC2(CO)CC2)cc1
583	CC(=O)N1C[C@@H]2CCCN3CCC[C@@H]([C@H]23)[C@H]1CCCC(=O)NCCC(C)C
760	CN(C)CC/C=C1/c2ccccc2COc2ccccc21
855	CCc1cc(C2CCCN2C(=O)NCc2cccc(OC)c2)on1 (centres undefined)
590	Cc1oc(-c2ccc(C(=O)NCCN(C)C)cc2)nc1CS(=O)c1ccccc1 (centres undefined)

RP-LC retention time [s]	Structure (SMILES)
761	COc1ccc(C)cc1NC(=O)N1CCN(Cc2nc3cc(C)ccc3o2)CC1
1260	Clc1ccc(Cl)c(-c2ccc(-c3nn4c(-c5ccco5)nnc4s3)o2)c1
687	O=C(NCCn1c(CCc2ccccc2)nc2cccnc21)c1cccs1
804	CCOC(=O)c1c(S(=O)(=O)N2CCC(C(=O)Nc3ccc(OC)cc3)CC2)c(C)n(C)c1C
663	O=C(Nc1ccc2c(c1)OCO2)c1c(O)c2cccnc2n(-c2ccccc2)c1=O
978	COc1cc(OC)c(NC(=O)C(=O)c2ccc[nH]2)cc1Cl
1040	CCc1ccc(-n2ncc3c(=O)n(Cc4nc(-c5ccccc5OC)no4)cnc32)cc1
741	O=C(Cn1nc(-c2cccs2)ccc1=O)Nc1nc2c(s1)CCCC2
727	Cn1cc(CC(=O)NCc2ccc(F)cc2Cl)c2cccnc21
747	O=C(NCc1ccccc1F)C1CCN(C(=O)c2ncn3c2COC(c2ccccc2)C3)CC1 (centres undefined)
806	COCCn1cc(CCNC(=O)Nc2ccc(Cl)cc2F)c2cccnc21
806	CS(=O)(=O)N1CCCc2ccc(NS(=O)(=O)c3ccccc3Cl)cc21
732	Cc1ccc(-c2ccc(N3CCCC(C(=O)NCc4ccc5c(c4)OCO5)C3)nn2)cc1 (centres undefined)
1040	Cc1ccc(S(=O)(=O)N2CCc3c(c(-c4nnc(-c5ccc(F)cc5)o4)nn3C)C2)cc1Cl
796	CCC(CC)C(=O)N(C)CCc1noc(-c2ccc(C(=O)N3CCCC3)cc2)n1
1010	COc1ccc(NC(=O)c2cc(S(=O)(=O)N3CCCC(C)C3)cn2C)c(OC)c1 (centres undefined)
899	Cn1c(=O)n(C)c2cc(N3CCOCC3)c(NC(=O)COc3ccc(Cl)cc3)cc21
660	C=CCc1c(C)nc2c(-c3ccccc3)cnn2c1NCCN(C)C
795	CCc1ccc(C2=C(C)C(N3CCCN(C(=O)CCOC)CC3)=NS2(=O)=O)cc1
661	CCN(C(=O)Cn1c(N2CCCCC2)nc(C)cc1=O)c1ccccc1

Further lines, the compound ahead of its results:

Structure (SMILES)	RP-LC retention time [s]
O=C(Nc1c(C(=O)Nc2ccccc2F)oc2ccccc12)c1ccc(Br)o1	1190
CC1(C)CCC=[N+]1[O-]	487
COc1cccc2cc(-c3ccc(OCC(=O)N4CCC(C(N)=O)CC4)cc3)c(=O)oc12	672
CCN(CC)C(=O)COc1cc(C(F)(F)F)c2c(C)nn(-c3ccc(C)cc3)c2n1	1250
O=C(NCCOc1ccc(-c2ccccn2)nn1)c1cccs1	586
O=C(c1cccnc1)N1CCC2(CC1)N=C(c1ccc(Cl)cc1)NO2	682
Cc1cccc(C)c1NC(=O)C1CCCN(c2nc3c(s2)c(C)nn3-c2cccc(F)c2)C1 (centres undefined)	1230
COc1cccc(CN2CCCCCCNC(=O)[C@@H]3CCC[C@@H]32)n1	660
CC(C)CCNC(=O)CN1C(=O)C2CCCCN2c2ccc(S(=O)(=O)N3CCCC3)cc21 (centres undefined)	940
COc1cccc(C2Cn3nnc(-c4nc(-c5cccc(Cl)c5)no4)c3CO2)c1 (centres undefined)	1250
Cn1c(=O)c2c(nc(Cc3ccccc3)n2C)n(C)c1=O	764
COc1cc(NC(=O)CN2C(=O)CN=C(c3ccccc3Cl)c3cc(Cl)ccc32)cc(OC)c1	990
NC(=O)c1ccc(Cl)c2ccccc12	777
Cc1ccc(S(=O)(=O)N2CCC(CCNC(=O)NC3CCCC3)CC2)cc1	894
COc1ccc(NC(=O)c2ccc(-c3ccc(-c4noc(C)n4)cc3C)cc2)cc1N1CCN(C)CC1	812
O=C(NCC(F)(F)F)C1CN(C(=O)COc2ccccc2F)C1	666
COc1cc2c(cc1OC)CN(C(=O)CSc1ncnc3sc(C)c(C)c13)CC2	851

Structure (SMILES)	RP-LC retention time [s]
O=C(Cn1cccc1-c1nnc(-c2ccccc2)o1)N1CCN(C(=O)c2ccco2)CC1	774
COc1cccc(-c2csc(-c3nnn(-c4ccc(C)cc4)c3N)n2)c1	1140
CCn1cc(CCN2CCN(S(=O)(=O)c3cccs3)CC2)c2cccnc21	962
CC(C)CCNC(=O)N1CCCC(C)(C(=O)NCc2ccccc2)C1 (centres undefined)	834
Cc1ccn2cc(-c3ccc(NC(=O)c4ccco4)cc3)nc2n1	596
CCCNC(=O)c1cn(-c2cc(-c3nc(C4CC4)no3)ccn2)cn1	818
COc1ccc(C(=O)Nc2nc(-c3ccc4c(c3)N(C)C(=O)C(C)O4)cs2)cc1 (centres undefined)	984
Cc1ccc(NC(=O)N2CCC(N3CCN(Cc4ccccc4)C(=O)C3=O)CC2)cc1Cl	809
COc1cccc(N2C(=O)C3N=NN(Cc4nc(-c5ccccc5C)no4)C3C2=O)c1 (centres undefined)	976
COc1ccc(N2CCN(C(=O)c3csc(-c4ccc(N5CCCC5)nc4)n3)CC2)cc1	651
CCN1c2ccccc2C(=O)NC12CCN(C(=O)c1cc(OC)cc(OC)c1)CC2	771
Cc1ccccc1CNC(=O)CCC1CCN(c2cc(NC3CC3)ncn2)CC1	585
CN(Cc1nc2ccccc2n1Cc1ccc(F)cc1)C(=O)c1ccco1	714
O=C(CC1OC(=O)c2ccccc21)c1ccc(Br)cc1 (centres undefined)	905
Cc1nc(-c2cc(S(=O)(=O)N3CCCc4ccccc43)c(C)s2)sc1C	1290
CC(C)N1C(=O)c2cccnc2Sc2cc(NC(=O)c3ccc(Cl)s3)ccc21	975

From the METLIN SMRT retention time set (Domingo-Almenara et al. 2019)
